# Tests used:
# CF-1 mice = assay: 6 Hz seizure test (44 mA, 3 sec, corneal electrodes) in vivo; design: species or system mouse; details: 20 mg/kg IP; for percentage of animals protected against psychomotor seizures: one hour before assay, 6 Hz 44 mA, n=16 per group
# From the text: This assay tests the ability of a test compound to block a psychomotor seizure induced by long-duration, low frequency (6 Hz) stimulation, and provides an art-accepted model of therapy-resistant partial seizure (Brown et al., 1953 J. Pharmacol. Exp. Therapeut. 107(3):273-283; White H S, Woodhead J H, Wilcox K S, General principles: discovery and preclinical development of antiepileptic drugs, In: Levy R H, Mattson R H, Meldrum B S, Perucca E, editors. Antiepileptic drugs 5th ed Philadelphia: Lippincott Williams & Wilkins; 2002. pp. 36-48; Hartman et al., 2008 Epilepsia 49(2):334-339).
# Methods. Adult male CF1 mice (18-25 g) are pretreated intraperitoneally (i.p.) with the test compound at a dose of 20-100 mg/kg. If toxicity is noted in a pre-test screen for toxic effects when the test compound is administered i.p. at varying dosages, the dose is modified to avoid overt toxic effects. Each treatment group (n=4-16 mice/group) is examined for anticonvulsive effects at one or more of five time points (¼, ½, 1, 2, and 4 hr) after treatment with the test compound. Following pretreatment, each mouse receives a drop of 0.5% tetracaine hydrochloride applied to each eye. The mouse is then challenged with low-frequency (6 Hz) stimulation for 3 sec delivered through corneal electrodes. The low-frequency, long-duration stimuli are initially delivered at 32 mA intensity. Animals are manually restrained and released immediately following the stimulation and observed for the presence or absence of seizure activity. If the test compound is effective in the 32 mA screen, an additional assay is performed in which the stimulation current is increased to 44 mA but otherwise using the same protocol as described above. For dose-response studies, an n of 8 mice is used per dose and a dose-response curve is generated at the time of peak effect (TPE) at the specific stimulation intensity.
# Typically, the 6 Hz stimulation results in a seizure characterized by a minimal clonic phase that is followed by stereotyped, automatistic behaviors, including jaw clonus, forelimb clonus, twitching of the vibrissae, and/or Straub-tail. Animals not displaying such behaviors are considered protected. Seizure score can be used as an additional measure of the efficacy of the investigational compound (Racine, R. J. 1972 Electroencephalogr. Clin. Neurophysiol. 32(3):281-294). Data are analyzed by Mann-Whitney U test, with p<0.05 determined to be statistically significant. For data obtained at each time point, results are expressed as the total number of animals protected out of the number of animals tested over time (e.g., 2/4 represents 2 out of 4 mice tested are protected).
# In this Example, the in vivo anticonvulsant effects of candidate AEDs were tested in mice using the 6 Hz seizure test. The 6 Hz seizure test was performed essentially as described above in Biological Example 2, with minor modifications as presented here, including data collection at a time point that was one hour after administration of the candidate AEDs.
# Compounds: Candidate AED compounds were prepared as described above unless otherwise noted, and were as follows: • Racemic fenfluramine ([rac]-fenfluramine hydrochloride); • (R)-fenfluramine ([R]-(−)-fenfluramine hydrochloride); • Racemic norfenfluramine ([rac]-norfenfluramine) was purchased from Toronto Research Chemicals, North York, Ontario, Canada; • (R)-norfenfluramine ([R]-(−)-norfenfluramine.
# Animals: Adult male CF-1 albino mice (25-35 g) purchased from Harlan-Envigo (East Millstone, NJ). The mice were housed four per cage and had access to filtered water and chow ad libitum, throughout the experiment.
# Compound Preparation and Administration: All four compounds were solubilized in sterile aqueous saline solution (0.9% NaCl). Compounds were administered to animals (16 mice in each treatment group) via intraperitoneal (IP) injection at 10 ml/kg volume, one hour prior to the assay. Control animals received vehicle (saline) only. […]
# DBA/2 mice = assay: Audiogenic seizure test in DBA/2 mice; format: in vivo, mouse; details: for Clonic Convulsion Incidence / Tonic Extension Incidence / Wild Running Incidence / Clonic Convulsion Latency / Tonic Extension Latency / Wild Running Latency / Audiogenic Response Score: 60 min prior; for Clonic Convulsion Incidence / Tonic Extension Incidence / Wild Running Incidence / Audiogenic Response Score: n=10; for Clonic Convulsion Latency / Tonic Extension Latency / Wild Running Latency / Audiogenic Response Score: mean ± SEM; for Clonic Convulsion Latency / Tonic Extension Latency / Wild Running Latency: maximum 60 s; for Audiogenic Response Score: score 0-4; for change in number of mice showing clonic convulsions / change in number of mice showing tonic convulsions / increase in latency to clonic convulsions / increase in latency to tonic convulsions / reduction of overall audiogenic response score: versus vehicle controls; for anticonvulsant activity in the audiogenic seizure test: (R/S)-fenfluramine at 15 and 30 mg/kg, (R)-fenfluramine at 30 mg/kg
# Description: DBA/2 is a widely used inbred strain of mouse susceptible to audiogenic seizures due to the asp2 mutation. […] The objective of this study was to evaluate the anticonvulsant activity of (R/S)-fenfluramine and to compare it to (R)-fenfluramine in the DBA/2 mouse.
# The method follows that described by Dilrmuiller et al., Neuroreport 4(6):683-686. Mice (DBA/2, 3-4 weeks old) were individually transferred (at 3-5 minute intervals) from the preparation room into an adjacent experimental room and placed in a Plexiglas™ jar (Diameter=40 cm; Height=35 cm) mounted with an electric bell (110-120 dB). Upon activating the bell, the occurrences and latencies to wild running fits, clonic and tonic seizures were measured. The number of deaths was also recorded. An audiogenic response score was assigned to each mouse as 0 (no seizure), 1 (wild running), 2 (clonic convulsion), 3 (tonic extension), or 4 (death). The bell was activated until a tonic seizure occurred or for a maximum of 60 seconds. Ten (10) mice were studied per group. The test was performed blind. All test compounds were dissolved in 0.9% saline (vehicle) and were administered by intraperitoneal (IP) injection at a dose volume of 10 mL/kg. Vehicle alone, (R/S)-fenfluramine (15 or 30 mg/kg) or (R)-fenfluramine (30 mg/kg) were administered 60 minutes prior to seizure induction. The positive reference compound (valproate; 180 mg/kg) was administered 30 minutes prior to seizure induction.
SMILES,percentage of animals protected against psychomotor seizures (CF-1 mice) [%],Clonic Convulsion Incidence (DBA/2 mice; 30 mg/kg IP) [%],Tonic Extension Incidence (DBA/2 mice; 30 mg/kg IP) [%],Wild Running Incidence (DBA/2 mice; 30 mg/kg IP) [%],Clonic Convulsion Latency (DBA/2 mice; 30 mg/kg IP) [s],Tonic Extension Latency (DBA/2 mice; 30 mg/kg IP) [s],Wild Running Latency (DBA/2 mice; 30 mg/kg IP) [s],Audiogenic Response Score (DBA/2 mice; 30 mg/kg IP),change in number of mice showing clonic convulsions (DBA/2 mice; 30 mg/kg IP) [%],change in number of mice showing tonic convulsions (DBA/2 mice; 30 mg/kg IP) [%],increase in latency to clonic convulsions (DBA/2 mice; 30 mg/kg IP),increase in latency to tonic convulsions (DBA/2 mice; 30 mg/kg IP),reduction of overall audiogenic response score (DBA/2 mice; 30 mg/kg IP) [%],anticonvulsant activity in the audiogenic seizure test (DBA/2 mice),other results
"CCNC(C)Cc1cccc(C(F)(F)F)c1 (racemic) [(rac)-fenfluramine, (R/S)—N-ethyl-1-(3-(trifluoromethyl)phenyl)propan-2-amine]",37.5,10,0,80,55.3 ± 4.8,60.0 ± 0.0,16.6 ± 7.4,0.9 ± 0.18,−90,−100,+853%,+641%,72,clear anticonvulsant activity,protective activity against seizures in the 6 Hz psychomotor seizure assay (CF-1 mice; summary statement): exhibited protective activity against seizures; Clonic Convulsion Incidence (DBA/2 mice; 15 mg/kg IP): 60%; Tonic Extension Incidence (DBA/2 mice; 15 mg/kg IP): 0%; Wild Running Incidence (DBA/2 mice; 15 mg/kg IP): 100%; Clonic Convulsion Latency (DBA/2 mice; 15 mg/kg IP): 31.4 ± 7.8 s; Tonic Extension Latency (DBA/2 mice; 15 mg/kg IP): 60.0 ± 0.0 s; Wild Running Latency (DBA/2 mice; 15 mg/kg IP): 4.0 ± 0.7 s; Audiogenic Response Score (DBA/2 mice; 15 mg/kg IP): 1.6 ± 0.16; change in number of mice showing clonic convulsions (DBA/2 mice; 15 mg/kg IP): −40%; change in number of mice showing tonic convulsions (DBA/2 mice; 15 mg/kg IP): −100%; increase in latency to clonic convulsions (DBA/2 mice; 15 mg/kg IP): +441%; increase in latency to tonic convulsions (DBA/2 mice; 15 mg/kg IP): +641%; reduction of overall audiogenic response score (DBA/2 mice; 15 mg/kg IP): 50%
"CCN[C@H](C)Cc1cccc(C(F)(F)F)c1 [(R)-fenfluramine, (R)—N-ethyl-1-(3-(trifluoromethyl)phenyl)propan-2-amine]",31.3,60,0,100,31.9 ± 7.7,60.0 ± 0.0,5.0 ± 1.4,1.6 ± 0.16,−40,−100,+450%,+641%,50,clear anticonvulsant activity,

# Reference: patent US12558326B2, “Method for treating epilepsy” (Xenon Pharmaceuticals Inc., priority 2018, dated 2026)
